Test results published in patent US9125926B2, “Vicenin 2 and analogues thereof for use as an antispasmodic and/or prokinetic agent” (priority 2011, dated 2015).
≈ marks a conversion by molar mass, not a printed value.

What was measured:
rat ileum [1] = assay: Rat ileum contraction induced by increasing concentrations of barium ion (musculotropic antispasmodic effect)
Description: (§1) An isolated vicenin 2 compound was tested for its antispasmodic effect with respect to the cholinergic system and with respect to nonspecific contraction mediated by Ba^++. Therefore, rat ileum was precontracted with increasing concentrations of either acetylcholine or Ba^++. The shift of either concentration response curve by the compound was determined. […] The dose of vicenin 2 for humans was estimated to be between 5 and 15 μg/70 kg b.w. which will correspond to 0.071 and 0.214 μg/kg b.w. Due to the increased metabolism in rodents compared to humans the doses were calculated as approx. between 0.5 and 1.49 μg/kg b.w. The central (blood) compartment (hydrophilic extracts) is approx. 7% of whole body volume, i.e. between 0.5/70 g and 1.4 μg/70 g blood. Since blood is in direct contact with ileum, a concentration of 7 to 20.86 μg/kg (0.007 to 0.021 μg/g) is expected for ileum. […] Therefore, it was reasonable to translate these in vivo calculations into the in vitro experiments and in these experiments 10 and 100 μl of a stock solution per 10 ml incubation bath were used. […] Under a protocol approved by the Animal Care and Use Committee of Munster, Germany, male and female rats (Charles River, Sulzfeld, Germany) weighing 200 to 320 g were used. The rats were anesthetized (CO2). The proximal ileum was removed, washed and placed in Krebs-Henseleit solution. 1 cm segments were placed in 10 mL organ baths with a resting tension of 1.0 g (preload). One end was attached to a force displacement transducer (lever transducer B40, Typ 373) combined with a two-channel amplifier (type 301, Hugo Sachs Elektronik, March, Germany); for the recording of tension changes a multi-pen recorder was used (Rikadenki Kogyo, Tokio, Japan). The composition of Krebs-Henseleit solution was (mM): […] The solution was kept at 37° C., pH 7.4 and gassed with carbogen (a 95% O2/5% CO2 mixture). Equilibration time for the ileum before starting the experiment was at least 30 min. After the tissues had been pre-treated with the extracts for 3 min cumulative concentration response curves using either acetylcholine or barium ion were recorded isotonically in the organ bath, and the effect was allowed to reach a steady state at each concentration. The results were normalized to 100% (maximum effect of either acetylcholine or barium ion alone). Differences between entire curves were obtained by comparing F-values of the best fitted curves by using GraphPad-Prism (version 3.00, GraphPad Software, Inc., 1999). P<0.05 was regarded as statistically significant.

rat ileum [2] = assay: Rat ileum contraction induced by increasing concentrations of acetylcholine (neurotropic antispasmodic effect)
Description: as §1

[3] = Solubility of isolated vicenin 2; format: physicochemical
rat ileum [4] = assay: Rat ileum contraction, effect of the compound on its own (spasmolytic effect); details: data as % of maximum acetylcholine effect; FIG. 1
Description: An isolated vicenin 2 compound was tested for its antispasmodic effect with respect to the cholinergic system and with respect to nonspecific contraction mediated by Ba^++. Therefore, rat ileum was precontracted with increasing concentrations of either acetylcholine or Ba^++. The shift of either concentration response curve by the compound was determined. […] The dose of vicenin 2 for humans was estimated to be between 5 and 15 μg/70 kg b.w. which will correspond to 0.071 and 0.214 μg/kg b.w. Due to the increased metabolism in rodents compared to humans the doses were calculated as approx. between 0.5 and 1.49 μg/kg b.w. The central (blood) compartment (hydrophilic extracts) is approx. 7% of whole body volume, i.e. between 0.5/70 g and 1.4 μg/70 g blood. Since blood is in direct contact with ileum, a concentration of 7 to 20.86 μg/kg (0.007 to 0.021 μg/g) is expected for ileum. […] Therefore, it was reasonable to translate these in vivo calculations into the in vitro experiments and in these experiments 10 and 100 μl of a stock solution per 10 ml incubation bath were used. […] After the tissues had been pre-treated with the extracts for 3 min cumulative concentration response curves using either acetylcholine or barium ion were recorded isotonically in the organ bath, and the effect was allowed to reach a steady state at each concentration. […]

[5] = tested on: murine frontal cortex networks; assay: Pattern recognition classification of activity patterns against the NeuroProof database (105 substances); format: cell-based, mice; details: AUC-V, all 143
Description: Afterwards, a further analysis was carried out through a pattern-recognition analysis and through comparison with NeuroProof database to determine relevant mechanisms involved in the frontal cortex activity pattern induced changes by each substance.
To clarify the mode of action of the test substance on the activity of cortical networks these experiments were further analyzed using methods of pattern recognition. For each stable concentration activity phase we normalized the 200 spike train parameters by the native reference activity.
Using a feature selection algorithm, on the basis of the reference substances, the 40 most descriptive parameters for all 200 spike train parameters were selected. The rankings of activity features using various score methods based on classification experiments and compared their total correct predictions were calculated. In this manner, the best results for a MDL (minimal description length) modified algorithm were obtained. A training data set with these 40 spike train parameters was established in the form of data records from the reference substances. An artificial neuronal network, multi layer feed forward network and back propagation algorithm […] hidden units was then trained. The respective data records of the four substances were all subsequently classified. A classification against 105 substances in the database was carried out.
The classification against 105 substances using the electrophysiological multi-channel recording of vicenin 2 and the 105 substances identified several activities for vicenin 2.

[6] = tested on: murine frontal cortex networks; assay: Cortical network activity in vitro, electrophysiological multi-channel recordings on MEA neurochips; format: cell-based, mice
From the text: Purpose of this example was the evaluation of the acute neuroactive effects of vicenin 2 (named AUC-V) on the neuronal activity of murine frontal cortex networks in vitro by means of electrophysiological multi-channel recordings.
Therefore, in a first step the dose-effect curve of vicenin 2 was plotted by means of cumulatively increasing the substance concentration, so that the spectrum of activity of the substance is optimally covered with 9 concentrations. Concentration from 100 fg/ml, 10 pg/ml, […], 1 ng/ml, 100 ng/ml, 1 μg/ml, 10 μg/ml, 100 μg/ml and 300 μg/ml were used.
Subsequently, the measurements of the dose-effect curve of the test substances were repeated at least 10 times. The recorded electrical activity patterns were characterized by 200 features and their changes were statistically evaluated.
The microelectrode array neurochips (MEA neurochips) were provided by the Center for Network Neuroscience (CNNS) at the University of North Texas. These 5×5 cm^2 glass chips have a central recording matrix with 64 passive electrodes and indium tin oxide conductors. The hydrophobic insulation material surface was activated by a brief butane flame pulse through a stainless steel mask. Thus, cell attachment on a confined adhesive region (5 mm diameter centered on the electrode array) is ensured. The activated surface regions were coated with poly-D-lysine (25 μg/ml; 30-70 kD) and laminin (16 μg/ml). Fabrication techniques and culture methods have been described previously.
Frontal cortex tissue was harvested from embryonic day 15, or day 14 chr:NMRI mice. After ethyl ether anesthesia, mice were sacrificed by cervical dislocation according to the German Animal Protection Act §4. […] Cultures were incubated at 37° C. in a 10% CO2 atmosphere until ready for use, which usually is four weeks to three months after seeding. […]
For extracellular recording, MEA neurochips were placed into sterilized constant-bath recording chambers and maintained at 37° C. […] The signals routinely recorded by these neurochips are located in a range of 15-1800 μV. […]

## O=c1cc(-c2ccc(O)cc2)oc2c([C@@H]3O[C@H](CO)[C@@H](O)[C@H](O)[C@H]3O)c(O)c([C@@H]3O[C@H](CO)[C@@H](O)[C@H](O)[C@H]3O)c(O)c12 [vicenin 2, 5,7-Dihydroxy-2-(4-hydroxyphenyl)-6,8-bis[(2S,3R,4R,5S,6R)-3,4,5-trihydroxy-6 (hydroxymethyl)oxan-2-yl]chromen-4-one]
Rat ileum [1]; 0.005 mg/ml final bath concentration, FIG. 4
  shift of the Ba++ concentration response curve: shifted the Ba^++ curve downwards
Rat ileum [1]; 0.005 mg/ml final bath concentration, FIG. 4, listed as AUC-V
  shift of the Ba++ concentration response curve: significantly different from the acetylcholine curve without additions
Rat ileum [1]; 0.05 mg/ml final bath concentration, FIG. 5
  shift of the Ba++ concentration response curve: rightward and downward shift of the Ba^++ curve
Rat ileum [1]; 0.05 mg/ml final bath concentration, FIG. 5, listed as AUC-V
  shift of the Ba++ concentration response curve: significantly different from the acetylcholine curve with no further additions
Rat ileum [2]; 0.005 mg/ml final bath concentration, FIG. 2
  shift of the acetylcholine concentration response curve: shifted the acetylcholine curve to the right in a competitive manner
Rat ileum [2]; 0.005 mg/ml final bath concentration, FIG. 2, listed as AUC-V
  shift of the acetylcholine concentration response curve: significantly different from the acetylcholine curve
Rat ileum [2]; 0.05 mg/ml final bath concentration, FIG. 3
  shift of the acetylcholine concentration response curve: stronger rightward and downward shift of the acetylcholine curve
Rat ileum [2]; 0.05 mg/ml final bath concentration, FIG. 3, listed as AUC-V
  shift of the acetylcholine concentration response curve: significantly different from the acetylcholine curve
[3]
  solubility: good solubility
Rat ileum [4]
  effect on rat ileum contraction from its own (direct spasmolytic effect): slight (not significant) relaxation
[5]; classified as Amisulpride
  data records classified as the respective substance: 15%
[5]; classified as Atropinemethylbromide
  data records classified as the respective substance: 12%
[5]; classified as DPDPE
  data records classified as the respective substance: 11%
[5]; classified as Enkephalin
  data records classified as the respective substance: 14%
[5]; classified as Eserine
  data records classified as the respective substance: 15%
[5]; classified as Indatraline
  data records classified as the respective substance: 12%
[5]; classified as Modafinil
  data records classified as the respective substance: 12%
[5]; classified as Nicotine
  data records classified as the respective substance: 12%
[5]; classified as Olanzapine
  data records classified as the respective substance: 17%
[5]; classified as Sodium dodecyl sulfate
  data records classified as the respective substance: 12%
[6]
  effect on burst structure of the network: no affects on the burst structure
[6]; Mus musculus, 9 accumulating concentrations, FIG. 6, read-out: EC50 of decrease of the cortical network activity (spike rate)
  EC50: 2 µg/mL (≈ 3.36 µM)
[6]; remaining activity, FIG. 6
  maximum decrease of the cortical network activity: 80 % of the native activity

## CN1[C@@H]2CC[C@H]1C[C@@H](OC(=O)C(CO)c1ccccc1)C2 (stereo partly drawn) [Atropine, reference compound]
Rat ileum [2]; positive control, 5×10^−5 mg/ml, FIG. 2
  shift of the acetylcholine concentration response curve: expected competitive neurotropic antispasmodic effect
Rat ileum [2]; positive control, 5×10^−5 mg/ml, FIG. 2, listed as atropine
  shift of the acetylcholine concentration response curve: significantly different from the acetylcholine curve

## COc1ccc(Cc2nccc3cc(OC)c(OC)cc23)cc1OC [Papaverine, reference compound]
Rat ileum [1]; positive control, 4×10^−2 g/ml, FIG. 4
  shift of the Ba++ concentration response curve: expected non-competitive musculotropic antispasmodic effect
Rat ileum [1]; positive control, 4×10^−2 g/ml, FIG. 4, listed as papaverine
  shift of the Ba++ concentration response curve: significantly different from the acetylcholine curve without additions
